# Assay results from patent US12042560B2, “Liposome composition” (Eisai R&D Management Co., Ltd., priority 2009, dated 2024).
# Structures can show the parent of a compound that is named as a salt.
# What was measured:
# [1] = test system: ACHN human renal cancer cell line; assay: In vivo antitumor activity in ACHN cancer-bearing nude mice; settings: free body, 2 mg/kg, 3 mg/kg and 4 mg/kg, 45 days after the start of sample administration, FIG. 3
# Experimental: ACHN (obtained from the American Type Culture Collection), which is a human renal cancer cell line, was cultured and grown in a 10% bovine fetal serum-containing MEM culture. The cells were separated from the flask using 0.05% Trypsin-EDTA solution and collected. After washing with PBS, the cells were suspended in PBS so as to be 5×10^7 cells/mL and then kept on ice. 0.1 mL of cell suspension liquid were subcutaneously injected in the right ventral portion of 6-week old nude mice (Charles River Laboratories Japan, Inc.). Each mouse was observed daily, and notes made appropriately in cases where abnormal conditions were found. Calipers were used to measure the tumor size over time, and the tumor size was calculated based on the calculation formula: major axis×(minor axis squared)÷2. At the point when the tumor size was 150 to 200 mm^3, the mice were separated into groups such that the average values of the tumor sizes and the body weights of mice were uniform among the test groups (five mice per test group), and the drug was administered into the caudal vein (0.2 mL/20 g; 3 times in 7-day intervals).
# [2] = Maximum tolerated dose in nude mice; settings: mouse, in vivo, intravenous, free bodies
# Experimental: FaDu (obtained from the American Type Culture Collection), which is a human pharyngeal squamous cell carcinoma line, was cultured and grown in a 10% bovine fetal serum-containing MEM culture. The cells were separated from the flask using 0.05% Trypsin-EDTA solution and collected. After washing with PBS, the cells were suspended in PBS so as to be 5×10^7 cells/mL and kept on ice. 0.1 mL of cell suspension liquid were subcutaneously injected in the right ventral portion of 6-week old nude mice (Charles River Laboratories Japan, Inc.). Each mouse was observed daily, and notes were made appropriately in cases where abnormal conditions were found. Calipers were used to measure the tumor size over time, and the tumor size was calculated based on the calculation formula: major axis×(minor axis squared)÷2. […]
# ACHN (obtained from the American Type Culture Collection), which is a human renal cancer cell line, was cultured and grown in a 10% bovine fetal serum-containing MEM culture. […] Calipers were used to measure the tumor size over time, and the tumor size was calculated based on the calculation formula: major axis×(minor axis squared)÷2. […]
# [3] = test system: FaDu human pharyngeal squamous cell carcinoma line; assay: In vivo antitumor activity in FaDu cancer-bearing nude mice; settings: free bodies, 4 mg/kg, caudal vein, 3 times in 7-day intervals, FIG. 2
# Experimental: FaDu (obtained from the American Type Culture Collection), which is a human pharyngeal squamous cell carcinoma line, was cultured and grown in a 10% bovine fetal serum-containing MEM culture. The cells were separated from the flask using 0.05% Trypsin-EDTA solution and collected. After washing with PBS, the cells were suspended in PBS so as to be 5×10^7 cells/mL and kept on ice. 0.1 mL of cell suspension liquid were subcutaneously injected in the right ventral portion of 6-week old nude mice (Charles River Laboratories Japan, Inc.). Each mouse was observed daily, and notes were made appropriately in cases where abnormal conditions were found. Calipers were used to measure the tumor size over time, and the tumor size was calculated based on the calculation formula: major axis×(minor axis squared)÷2. At the point when the tumor size was 100 to 200 mm^3, the mice were separated into groups such that the average values of the tumor sizes and the mouse body weights were uniform among the test groups (five mice per test group), and the drug was administered into the caudal vein (0.2 mL/20 g; 3 times in 7-day intervals).
structure (smiles),measurement,setting,value
"C=C1C[C@@H]2CC[C@@]34C[C@H]5O[C@H]6[C@@H](O3)[C@H]3O[C@H](CC[C@@H]3O[C@H]6[C@H]5O4)CC(=O)C[C@@H]3[C@@H](OC)[C@@H](C[C@H](O)CN)O[C@H]3C[C@H]3O[C@@H](CC[C@@H]1O2)C[C@@H](C)C3=C [Eribulin mesylate, eribulin mesylate]",Tumor volume versus non-treated group,[1],no significant difference was found
same,MTD,[2],4 mg/kg
same,Tumor-reducing effect (average tumor volume),[3],a tumor-reducing effect was not obtained
